Measured values taken from PMC12040169 (PLOS Biology, 2025).

Assay: in vitro
Settings: human, hela cells, % viability

Compound | viability at 28.5 h, 10 µM [%]
COc1ccc([C@@]23CC[C@@H](NC(=O)Nc4cccc(S(=O)(=O)C(F)(F)F)c4)C[C@@H]2N(C)CC3)cc1OC [CBK051275T] | 99
O=S(=O)(c1ccc(Br)cc1F)N1CCCCC1CO (stereo not shown) [CBK051302] | 92.9
Cc1nc(S(=O)(=O)Nc2nc(C(C)C)ns2)cn1C [CBK051323] | 107
CN(C)CC1CCCCN1S(=O)(=O)c1ccc(C(C)(C)C)cc1 (stereo not shown) [CBK051347] | 108
CC(=O)c1cnc2cc(-c3ccc(Cl)cc3)nn2c1C [CBK051484] | 107
O=C(c1nn2c(C(F)(F)F)cc(-c3ccccc3)nc2c1Cl)N1CCOCC1 [CBK051498] | 90.4
COc1ccc(CCN2CCC(CNC(=O)NCc3ccccc3)CC2)cc1OC [CBK051511T] | 92.3
O=S(=O)(c1ccc(OC(F)(F)F)cc1)N1CCCCC1CO (stereo not shown) [CBK051527] | 91.7
COc1ccc([C@@]23CC[C@@H](NC(=O)Nc4ccc(F)c(F)c4)C[C@@H]2N(C)CC3)cc1O [CBK051630] | 88.3
CS(=O)(=O)NCC1(c2ccccc2)CCN(S(=O)(=O)c2c(Cl)cccc2Cl)CC1 [CBK051633] | 89.9
Cc1cc(F)c(S(N)(=O)=O)cc1NC(=O)CN1CCOCC1 [CBK051649C] | 104
COc1ccc([C@@]23CC[C@@H](NC(=O)Nc4ccc(F)c(C#N)c4)C[C@@H]2N(C)CC3)cc1OC [CBK051659T] | 84
c1ccc(Cn2ccc3c(N4CCNCC4)nccc32)cc1 [CBK051672C] | 87.9
COc1ccccc1-c1cc2c(=O)n(C)c(-c3ccc(CNC(C)C)cc3)cc2o1 [CBK051699C] | 84.5
C=CCSc1nc2ccccc2c(=O)n1CCc1ccccc1 [CBK055285] | 81.9
O=C(O)CCCN1C(=O)c2ccccc2C1=O [CBK056635] | 91.7
CCOC(=O)c1nc(N)oc1C [CBK056636] | 85.3
C#CCN1CC[C@]2(c3ccc(OC)c(OC)c3)CC[C@@H](NC(=O)Nc3ccc(F)c(F)c3)C[C@H]12 [CBK056657] | 104
COc1ccc([C@@]23CC[C@@H](NS(=O)(=O)Cc4ccccc4)C[C@@H]2N(C)CC3)cc1OC [CBK056665T] | 91.4
COc1ccc([C@@]23CCCN(C(=O)Nc4ccc(SC(F)(F)F)cc4)C[C@@H]2N(C)CC3)cc1OC [CBK056681T] | 92.2
CC(C)(C)OC(=O)NC1CCC(NCc2ccccc2Br)CC1 (stereo not shown) [CBK056684] | 91.5
CC(C)(C)OC(=O)NC1CCC(NCc2ccncc2)CC1 (stereo not shown) [CBK056688] | 98.8
CC(C)(C)OC(=O)NC1CCC(NCc2cc(F)cc(F)c2)CC1 (stereo not shown) [CBK056689] | 91.3
CC(C)(C)OC(=O)NC1CCC(NCc2c[nH]c(-c3ccccc3)n2)CC1 (stereo not shown) [CBK056692] | 80.9

Compound | viability at 28.5 h, 10 µM [%]
COc1ccccc1CNCCNC(=O)OC(C)(C)C [CBK056694] | 105
CC(C)(C)OC(=O)NCCNCc1cc(F)cc(F)c1 [CBK056698] | 90.3
COc1ccccc1CNCc1ccc(CNC(=O)OC(C)(C)C)cc1 [CBK056702] | 100
CC(C)(C)OC(=O)NCc1ccc(CNCc2ccccc2C(F)(F)F)cc1 [CBK056703] | 92.2
CC(C)(C)OC(=O)NCc1ccc(CNCc2cccc(Cl)c2)cc1 [CBK056704] | 108
CC(C)(C)OC(=O)NCc1ccc(CNCc2cc(F)cc(F)c2)cc1 [CBK056707] | 107
COc1ccccc1CNCC1CCN(C(=O)OC(C)(C)C)CC1 [CBK056710] | 96.4
COc1ccc(F)c(CNCC2CCN(C(=O)OC(C)(C)C)CC2)c1 [CBK056716] | 95.9
O=C(Nc1ccc(C(F)(F)F)cc1)N(Cc1ccc2ccccc2c1)CC1CCNCC1 [CBK056720] | 88.9
Cc1noc(C)c1NC(=O)N(Cc1ccc(-c2ccccc2)cc1)CC1CCNCC1 [CBK056721] | 100
Cn1c(C(=O)NCCN2CCOCC2)cc2oc(-c3ccccc3)nc2c1=O [CBK056726T] | 87.8
COc1ccc([C@@]23CC[C@@H](NS(=O)(=O)c4ccc5ccccc5c4)C[C@@H]2N(C)CC3)cc1OC [CBK056848T] | 96.8
COc1ccc([C@@]23CC[C@@H](NC(=O)Nc4ccc(Cl)c(F)c4)C[C@@H]2N(C(C)C)CC3)cc1OC [CBK056852T] | 99.2
CCOc1ccc(NCc2ccccc2NS(=O)(=O)c2ccc(C)cc2)cc1 [CBK056876] | 93.6
Cc1ccc(S(=O)(=O)Nc2ccccc2C(N)=O)cc1 [CBK056893] | 76
O=C(NCn1nnc2ccccc21)c1ccccc1 [CBK056950] | 93.6
Cc1nc(C(F)(F)F)ccc1NC(=O)CSCC(=O)O [CBK056975] | 93.3
O=C(CCN1CCOCC1)Nc1cc(Cl)cc(Cl)c1 [CBK057021] | 119
Nc1ccccc1C(=O)NCc1ccncc1 [CBK057024] | 90.1
Cc1cc(NCn2nnc3ccccc32)ccc1Br [CBK057031] | 88.2
O=C(NC1CCN(Cc2c(F)cccc2Cl)CC1)c1cccs1 [CBK057035] | 100
Cc1ccc(SCC(=O)Nc2cc(C)on2)cc1 [CBK057070] | 115
COC(=O)c1ccsc1NC(=O)CN1CCNCC1 [CBK057080] | 88.5
O=C(O)C1CCC1C(=O)N1CCN(c2nc3ccc(Cl)cc3s2)CC1 (stereo not shown) [CBK057108] | 92.4

Compound | viability at 28.5 h, 10 µM [%]
O=C(NCc1sccc1Cl)Nc1cccc(Cl)c1 [CBK057110] | 92.4
Cn1nc(NC(=O)COCC(=O)O)c2ccccc21 [CBK057114] | 98.8
Cn1nc(NC(=O)CC(C)(C)CC(=O)O)c2c(F)cccc21 [CBK057122] | 86.3
Cc1nc(C(F)(F)F)ccc1C(=O)N1C=CC(C(F)(F)F)=NCC1 [CBK057187] | 113
CSc1cccc(NC(=O)NCCN2CCNC2=O)c1 [CBK057191] | 103
O=S(=O)(Nc1ccc(C(F)(F)F)cc1Cl)c1cc(Br)c(Cl)s1 [CBK057196] | 78.9
O=C(NCC(O)c1ccccc1)Nc1ccccc1 (stereo not shown) [CBK057227] | 95.2
Cc1cc(C(=O)Nc2ccccc2N2CCOCC2)c(C)o1 [CBK057243] | 111
Cc1oc(C(C)(C)C)cc1C(=O)Nc1ccc(C(F)(F)F)cc1 [CBK057251] | 87
O=C(O)CSCC(=O)N1CCN(c2ccc(F)cc2)CC1 [CBK057269] | 98
CCOc1ccccc1NC(=O)Nc1cccc(S(N)(=O)=O)c1 [CBK057282] | 91.3
COc1cc2c(cc1OC)C(C)N(S(=O)(=O)c1cn(C)cn1)CC2 (stereo not shown) [CBK057314] | 112
O=C(O)C1CCN(C(=O)c2ccc3nsnc3c2)CC1 [CBK057344] | 99.8
Cc1cc(C(=O)N(C)C2CCCCC2)no1 [CBK057375] | 113
O=C(O)CCC(=O)NCC(=O)c1ccc(F)cc1 [CBK057384] | 76.6
O=S(=O)(NCC1COc2ccccc2O1)c1cc(Cl)sc1Cl (stereo not shown) [CBK057394] | 85.4
CC(C)c1ccc(NC(=O)C2=NNC(=O)CC2)cc1 [CBK057421] | 96.5
O=S(=O)(NCCc1c[nH]c2ccccc12)c1cccc2nsnc12 [CBK057456] | 83.4
CCOc1ccccc1NC(=O)NCCSCc1ccco1 [CBK057501] | 94.5
O=C(Nc1ccc2nonc2c1)N1CCOCC1 [CBK057530] | 90.8
Cn1ccnc1SCC(=O)Nc1ccc(I)cc1 [CBK057541] | 85.3
O=C(O)CSCC(=O)Nc1ccc(Cl)cn1 [CBK057543] | 86.5
CC(C)SCC(=O)Nc1ccc(Br)cc1 [CBK057618] | 102
COc1ccc(NC(=O)c2cc(C(F)(F)F)cc(C(F)(F)F)c2)cn1 [CBK057634] | 85.1

Compound | viability at 28.5 h, 10 µM [%]
COC(=O)CNC(=O)c1nc(SC)ncc1Cl [CBK057651] | 107
CCOC(=O)NC(NCc1ccco1)(C(F)(F)F)C(F)(F)F [CBK057654] | 102
CCCCc1ccc(NC(=O)CSc2nnc(N)s2)c(C)c1 [CBK057659] | 91.9
O=C(Nc1ccccc1)c1cc2sccc2s1 [CBK057696] | 87.9
CCOC(=O)CNc1ccc(C(F)(F)F)cc1 [CBK057732] | 94.4
CC(=O)c1ccccc1NC(=O)CSCC(=O)O [CBK057752] | 92.2
CC(=O)c1ccccc1NC(C#N)c1ccccc1 (stereo not shown) [CBK057758] | 99.6
O=C(Nc1cc(Cl)cc(Cl)c1)c1csnn1 [CBK057759] | 88.1
CCOC(=O)c1csc(COc2ccccc2Cl)n1 [CBK057782] | 113
O=C(Nc1ccno1)Nc1ccc(Cl)cc1Cl [CBK057809] | 94.6
CSc1nnc(SCC(=O)N2CCC(C(F)(F)F)CC2)s1 [CBK057829] | 111
CCOC(=O)c1sc(NC(=O)C2CCCCC2)nc1C [CBK057893] | 92.3
CCOc1ccccc1NC(=O)c1cc(CC(C)C)oc1C [CBK057904] | 101
O=C(CC1SC(=O)NC1=O)Nc1ccccc1O (stereo not shown) [CBK057932] | 98.5
CCc1cc2c(NCc3ccccc3)ncnc2s1 [CBK057944] | 91.4
CC1CC(Nc2ccccc2)c2ccccc2N1 (stereo not shown) [CBK057947] | 86.6
CCC(C)c1ccc(NC(=O)c2cccnc2)cc1 (stereo not shown) [CBK057967] | 85.9
COC(=O)C(CCSC)NC(=O)c1cccs1 (stereo not shown) [CBK057972] | 94
CCCC(C)C(=O)Nc1ccncc1 (stereo not shown) [CBK057984] | 87.1
O=C(O)CC(NC(=O)c1ccco1)c1ccc(F)cc1 (stereo not shown) [CBK057988] | 107
NS(=O)(=O)c1cnccc1NCCc1ccccc1 [CBK058003] | 103
O=C(Nc1nccs1)c1cccc(Cl)c1Cl [CBK058011] | 112
